Assays:
[1] = Compound cytotoxicity, XTT-based colorimetric assay; format: cell-based; settings: human, uninfected MT2 cells
Method in brief: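 XTT colorimetric read-out on day 4 gave CC50 values, using MT2 cells left uninfected but otherwise handled as in the antiviral assay.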

[2] = tested on: recombinant NL4-3 virus (nef section replaced with Renilla luciferase gene) in MT-2 cells; experiment: HIV cell culture assay (antiviral activity, luciferase readout); format: cell-based; settings: MT-2 cells infected for 4-5 days with recombinant NL4-3 luciferase virus
Method in brief: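 Serially diluted compounds were present throughout a 4-5 day infection of MT-2 cells by recombinant NL4-3 whose nef region partly encodes Renilla luciferase. Antiviral activity was taken from live-cell luciferase signal, with the 50% effective concentration fitted by the exponential median effect equation.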

SMILES | CC50 at 4 days ([1]; Table 1a, day 4, XTT) [nM] | EC50 ([2]; Renilla, NL43, Table 1a) [nM] | CC50 at 4 days ([1]; Table 1, day 4, XTT) [nM] | EC50 ([2]; Renilla, NL43, Table 1) [nM] | further results
Cn1ccc2nc(C(Cc3cc(F)cc(F)c3)NC(=O)Cn3nc(C(F)F)c4c3C(F)(F)[C@@H]3C[C@H]43)c(-c3ccc(Cl)c4c(NS(C)(=O)=O)nn(C)c34)cc21 (single isomer, unassigned) [Example 117] | > 10000 | 0.243 | – | – | –
COc1c(F)cc2c(=O)n(-c3ccc(Cl)c4c(NS(C)(=O)=O)nn(C)c34)c([C@H](Cc3cc(F)cc(F)c3)NC(=O)Cn3ccc(C4CC4)n3)nc2c1F (single isomer, unassigned) [Example 115] | > 1000 | – | – | – | EC50 ([2]; Table 1a): 68.4 nM
COc1cc(F)c2c(=O)n(-c3ccc(Cl)c4c(NS(C)(=O)=O)nn(C)c34)c([C@H](Cc3cc(F)cc(F)c3)NC(=O)Cn3nc(C(F)F)c4c3C(F)(F)[C@@H]3C[C@H]43)nc2c1 (mixture of isomers) [Example 185, N—((S)-1-(3-(4-chloro-1-methyl-3-(methylsulfonamido)-1H-indazol-7-yl)-5-fluoro-7-methoxy-4-oxo-3,4-dihydroquinazolin-2-yl)-2-(3,5-difluorophenyl)ethyl)-2-((3bS,4aR)-3-(difluoromethyl)-5,5-difluoro-3b,4,4a,5-tetrahydro-1H-cyclopropa[3,4]cyclopenta[1,2-c]pyrazol-1-yl)acetamide] | > 1000 | 87.3 | – | – | –
Cn1nc(NS(C)(=O)=O)c2c(Cl)ccc(-c3cc4[nH]cnc4nc3C(Cc3cc(F)cc(F)c3)NC(=O)Cn3nc(C(F)F)c4c3C(F)(F)[C@@H]3C[C@H]43)c21 (single isomer, unassigned) [Example 4.1] | – | – | > 10000 | – | EC50 ([2]; Table 1): 230 nM
COc1ccc(-n2c([C@H](Cc3cc(F)cc(F)c3)NC(=O)Cc3c[nH]c4ccc(O)cc34)nc3ccccc3c2=O)cc1 [Example 10.30] | – | – | > 10000 | 8 | –
COc1ccc(-n2c([C@H](Cc3cc(F)cc(F)c3)NC(=O)Cn3nc(C(F)F)c4c3C(F)(F)[C@@H]3C[C@H]43)nc3ncccc3c2=O)cc1 [Example 9.1, 2-((3bS,4aR)-3-(difluoromethyl)-5,5-difluoro-3b,4,4a,5-tetrahydro-1H-cyclopropa[3,4]cyclopenta[1,2-c]pyrazol-1-yl)-N—((S)-2-(3,5-difluorophenyl)-1-(3-(4-methoxyphenyl)-4-oxo-3,4-dihydropyrido[2,3-d]pyrimidin-2-yl)ethyl)acetamide] | – | – | 8100 | 6.1 | –
Cn1nc(NS(C)(=O)=O)c2c(Cl)ccc(-c3nc4ccccc4nc3[C@H](Cc3cc(F)cc(F)c3)NC(=O)Cn3nc(C(F)F)c4c3C(F)(F)[C@@H]3C[C@H]43)c21 [Example 154, N—((S)-1-(3-(4-chloro-1-methyl-3-(methylsulfonamido)-1H-indazol-7-yl)quinoxalin-2-yl)-2-(3,5-difluorophenyl)ethyl)-2-((3bS,4aR)-3-(difluoromethyl)-5,5-difluoro-3b,4,4a,5-tetrahydro-1H-cyclopropa[3,4]cyclopenta[1,2-c]pyrazol-1-yl)acetamide] | > 10000 | 0.43 | – | – | –
Cn1nc(NS(C)(=O)=O)c2c(Cl)ccc(-n3c([C@H](Cc4cc(F)cc(F)c4)NC(=O)Cn4nc(C(F)F)c5c4C(F)(F)[C@@H]4C[C@H]54)nc4cc(C#N)ccc4c3=O)c21 (single isomer, unassigned) [Example 20] | – | – | > 10000 | 24 | –
O=C(Cn1nc(C(F)F)c2c1C(F)(F)[C@@H]1C[C@H]21)N[C@@H](Cc1cc(F)cc(F)c1)c1nc2ncccc2c(=O)n1-c1ccc(S(=O)(=O)N2CCOCC2)cc1 [Example 10.38] | – | – | > 10000 | 0.204 | –
COc1ccc2nc([C@H](Cc3cc(F)cc(F)c3)NC(=O)Cn3nc(C(F)F)c4c3C(F)(F)[C@@H]3C[C@H]43)n(-c3ccc(Cl)c4c(NS(C)(=O)=O)nn(C)c34)c(=O)c2c1 (single isomer, unassigned) [Example 173] | > 1000 | – | – | – | EC50 ([2]; Table 1a): 32 nM
NC(=O)c1cc(-c2cc3[nH]ncc3nc2[C@H](Cc2cc(F)cc(F)c2)NC(=O)Cn2nc(C(F)F)c3c2C(F)(F)[C@@H]2C[C@H]32)ccc1F [Example 10.6, 5-(5-((S)-1-(2-((3bS,4aR)-3-(difluoromethyl)-5,5-difluoro-3b,4,4a,5-tetrahydro-1H-cyclopropa[3,4]cyclopenta[1,2-c]pyrazol-1-yl)acetamido)-2-(3,5-difluorophenyl)ethyl)-1H-pyrazolo[4,3-b]pyridin-6-yl)-2-fluorobenzamide] | – | – | > 10000 | 16 | –
CS(=O)(=O)Nc1nn(CC(F)F)c2c(-c3cc4[nH]ncc4nc3[C@H](Cc3cc(F)cc(F)c3)NC(=O)Cn3nc(C(F)F)c4c3C(F)(F)[C@@H]3C[C@H]43)ccc(Cl)c12 (single isomer, unassigned) [Example 92] | > 10000 | 0.161 | – | – | –
O=C(Cn1nc(C(F)F)c2c1C(F)(F)[C@@H]1C[C@H]21)N[C@@H](Cc1cc(F)cc(F)c1)c1nc2ccccc2nc1-c1ccc2c(c1)C(=O)NC2 [Example 157, 2-((3bS,4aR)-3-(difluoromethyl)-5,5-difluoro-3b,4,4a,5-tetrahydro-1H-cyclopropa[3,4]cyclopenta[1,2-c]pyrazol-1-yl)-N—((S)-2-(3,5-difluorophenyl)-1-(3-(3-oxoisoindolin-5-yl)quinoxalin-2-yl)ethyl)acetamide] | > 10000 | 10.4 | – | – | –
Cc1nc2nc(C(Cc3cc(F)cc(F)c3)NC(=O)Cn3nc(C(F)F)c4c3C(F)(F)[C@@H]3C[C@H]43)c(-c3ccc(Cl)c4c(NS(C)(=O)=O)nn(C)c34)cc2s1 (single isomer, unassigned) [Example 2.1] | – | – | > 10000 | – | EC50 ([2]; Table 1): 0.1 nM
CCOc1ccc2c(=O)n(-c3ccc(Cl)c4c(NS(C)(=O)=O)nn(C)c34)c([C@H](Cc3cc(F)cc(F)c3)NC(=O)Cn3nc(C(F)F)c4c3C(F)(F)[C@@H]3C[C@H]43)nc2n1 (mixture of isomers) [Example 60.2, N-[(1S)-1-[3-(4-chloro-3-methanesulfonamido-1-methyl-1H-indazol-7-yl)-7-ethoxy-4-oxo-3H,4H-pyrido[2,3-d]pyrimidin-2-yl]-2-(3,5-difluorophenyl)ethyl]-2-[(2S,4R)-9-(difluoromethyl)-5,5-difluoro-7,8-diazatricyclo[4.3.0.0^2,4]nona-1(6),8-dien-7-yl]acetamide] | > 1000 | 0.0174 | – | – | –
Cn1nc(NS(C)(=O)=O)c2c(Cl)ccc(-c3c(C(Cc4cc(F)cc(F)c4)NC(=O)Cn4nc(C(F)F)c5c4C(F)(F)[C@@H]4C[C@H]54)ncc4[nH]cnc34)c21 (single isomer, unassigned) [Example 7.3] | – | – | > 10000 | – | EC50 ([2]; Table 1): 10000 nM
N#Cc1cnc2nc([C@H](Cc3cc(F)cc(F)c3)NC(=O)Cn3nc(C(F)F)c4c3C(F)(F)[C@@H]3C[C@H]43)n(-c3ccc(C4CC4)cc3)c(=O)c2c1 [Example 39, N-[(1S)-1-[6-cyano-3-(4-cyclopropylphenyl)-4-oxo-3H,4H-pyrido[2,3-d]pyrimidin-2-yl]-2-(3,5-difluorophenyl)ethyl]-2-[(2S,4R)-9-(difluoromethyl)-5,5-difluoro-7,8-diazatricyclo[4.3.0.0^2,4]nona-1(6),8-dien-7-yl]acetamide] | 2000 | 3.76 | – | – | –
Cn1nc(NS(C)(=O)=O)c2c(Cl)ccc(-n3c([C@H](Cc4cc(F)cc(F)c4)NC(=O)Cn4nc(C(F)F)c5c4C(F)(F)[C@@H]4C[C@H]54)nc4cc(Cl)cc(Cl)c4c3=O)c21 (mixture of isomers) [Example 178, N—((S)-1-(5,7-dichloro-3-(4-chloro-1-methyl-3-(methylsulfonamido)-1H-indazol-7-yl)-4-oxo-3,4-dihydroquinazolin-2-yl)-2-(3,5-difluorophenyl)ethyl)-2-((3bS,4aR)-3-(difluoromethyl)-5,5-difluoro-3b,4,4a,5-tetrahydro-1H-cyclopropa[3,4]cyclopenta[1,2-c]pyrazol-1-yl)acetamide] | > 1000 | 18.1 | – | – | –
CC(C)c1ccc(-n2c([C@H](Cc3cc(F)cc(F)c3)NC(=O)Cc3c[nH]c4ccc(O)cc34)nc3ccccc3c2=O)cn1 [Example 10.33] | – | – | > 10000 | 49 | –
Cc1cc(C)c2c(=O)n(-c3ccc(Cl)c4c(NS(C)(=O)=O)nn(C)c34)c([C@H](Cc3cc(F)cc(F)c3)NC(=O)Cn3nc(C(F)F)c4c3C(F)(F)[C@@H]3C[C@H]43)nc2n1 [Example 42.2, N-[(1S)-1-[3-(4-chloro-3-methanesulfonamido-1-methyl-1H-indazol-7-yl)-5,7-dimethyl-4-oxo-3H,4H-pyrido[2,3-d]pyrimidin-2-yl]-2-(3,5-difluorophenyl)ethyl]-2-[(2S,4R)-9-(difluoromethyl)-5,5-difluoro-7,8-diazatricyclo[4.3.0.0^2,4]nona-1(6),8-dien-7-yl]acetamide] | > 10000 | 0.016 | – | – | –
O=C(Cc1c[nH]c2ccc(O)cc12)NC(Cc1cc(F)cc(F)c1)c1nc2cn[nH]c2cc1-c1ccc2scnc2c1 (single isomer, unassigned) [Example 3.3, N-(1-(6-(benzo[d]thiazol-5-yl)-1H-pyrazolo[4,3-b]pyridin-5-yl)-2-(3,5-difluorophenyl)ethyl)-2-(5-hydroxy-1H-indol-3-yl)acetamide] | – | – | 42400 | – | EC50 ([2]; Table 1): 5.7 nM
Cn1nc(NS(C)(=O)=O)c2c(Cl)ccc(-c3cc4scnc4nc3C(Cc3cc(F)cc(F)c3)NC(=O)Cc3c[nH]c4ccc(O)cc34)c21 (centres unmarked) [Example 1.7, N-(1-(6-(4-chloro-1-methyl-3-(methylsulfonamido)-1H-indazol-7-yl)thiazolo[4,5-b]pyridin-5-yl)-2-(3,5-difluorophenyl)ethyl)-2-(5-hydroxy-1H-indol-3-yl)acetamide] | – | – | > 100000 | 11 | –

Source: patent publication US10954252B1, “Inhibitors of human immunodeficiency virus replication” (ViiV HEALTHCARE UK (NO.5) LIMITED, priority 2017, dated 2021)
